Assay results published in patent publication US20260014147A1, “STAT6 DEGRADERS” (Gilead Sciences, Inc., priority 2024, published 2026).

Molecular target: T1, STAT6 (endogenous, HiBiT-tagged) in HeLa LgBiT clone 4.14 cells (Homo sapiens, UniProt P42226)
T1 construct: These cells express endogenous STAT6; host or cells: HeLa LgBiT clone 4.14
T1 sequence (P42226 1-847): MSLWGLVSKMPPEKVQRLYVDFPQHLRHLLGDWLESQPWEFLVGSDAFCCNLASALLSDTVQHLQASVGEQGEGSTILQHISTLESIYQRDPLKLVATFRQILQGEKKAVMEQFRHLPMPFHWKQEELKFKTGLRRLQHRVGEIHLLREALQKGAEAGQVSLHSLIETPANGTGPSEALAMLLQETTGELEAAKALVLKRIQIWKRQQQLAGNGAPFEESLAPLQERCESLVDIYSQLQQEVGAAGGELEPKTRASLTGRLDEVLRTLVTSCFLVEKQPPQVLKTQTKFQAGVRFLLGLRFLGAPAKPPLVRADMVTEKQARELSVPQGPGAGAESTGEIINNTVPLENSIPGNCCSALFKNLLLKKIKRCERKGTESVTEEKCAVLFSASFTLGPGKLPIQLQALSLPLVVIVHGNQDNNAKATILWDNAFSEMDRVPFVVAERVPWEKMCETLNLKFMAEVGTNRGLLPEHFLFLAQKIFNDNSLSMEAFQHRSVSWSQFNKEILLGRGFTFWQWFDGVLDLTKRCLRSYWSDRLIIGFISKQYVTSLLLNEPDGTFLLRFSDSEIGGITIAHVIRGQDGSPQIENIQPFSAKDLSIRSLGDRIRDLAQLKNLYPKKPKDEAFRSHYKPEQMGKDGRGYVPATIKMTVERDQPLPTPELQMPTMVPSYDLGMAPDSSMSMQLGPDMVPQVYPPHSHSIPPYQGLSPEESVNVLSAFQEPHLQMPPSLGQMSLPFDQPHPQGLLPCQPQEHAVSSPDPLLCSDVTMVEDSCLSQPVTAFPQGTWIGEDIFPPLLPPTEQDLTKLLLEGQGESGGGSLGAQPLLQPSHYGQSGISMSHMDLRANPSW
Assay: STAT6 Degrader Assay (HiBiT based, HeLa LgBiT clone 4.14 cells, luminescence, DC50)
Type: cell-based
Details: DC50 provided for test compounds with >80% Emax, geometric mean, read-out: STAT6 degradation DC50
How it was run: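 Remaining STAT6 is read as NanoBiT luminescence after 0.5 h with Nano-Glo, in HeLa LgBiT clone 4.14 cells expressing endogenous HiBiT-tagged STAT6, following 4-24 h compound incubation at 37 °C. Full degradation is set by 50 µM terfenadine, which kills the cells; degradation plotted against log compound concentration.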

| SMILES | DC50 |
| --- | --- |
| COCc1nc2cc(-c3ccnc4c3cc([C@H](C)N3CCC(c5ccc(C(=O)N6CCC(CN7CCN(c8ccc(NC9CCC(=O)NC9=O)cc8C(F)(F)F)CC7)CC6)cc5)CC3)n4C)ccc2[nH]1 (stereo partly drawn) [Example 2i5, 3-((4-(4-((1-(4-(1-((S)-1-(4-(2-(methoxymethyl)-1H-benzo[d]imidazol-5-yl)-1-methyl-1H-pyrrolo[2,3-b]pyridin-2-yl)ethyl)piperidin-4-yl)benzoyl)piperidin-4-yl)methyl)piperazin-1-yl)-3-(trifluoromethyl)phenyl)amino)piperidine-2,6-dione] | 34 nM |
| Cn1c(CN2CCC(c3ccc(C(=O)N4CCC(CN5CCN(c6ncc(NC7CCC(=O)NC7=O)cn6)CC5)CC4)cc3)CC2)cc2c(-c3ccc4[nH]ncc4c3)ccnc21 (stereo not shown) [Example 2k1, 3-((2-(4-((1-(4-(1-((4-(1H-indazol-5-yl)-1-methyl-1H-pyrrolo[2,3-b]pyridin-2-yl)methyl)-piperidin-4-yl)benzoyl)piperidin-4-yl)methyl)piperazin-1-yl)pyrimidin-5-yl)amino)piperidine-2,6-dione] | 28.8 nM |
| COCc1nc2cc(-c3ccnc4c3cc([C@H](C)N3CCC(c5ccc(C(=O)N6CCC(CN7CCC(c8ccc(NC9CCC(=O)NC9=O)cc8F)C(F)(F)C7)CC6)cc5)CC3)n4C)ccc2[nH]1 (stereo partly drawn) [Example 2m3, 3-((4-(3,3-difluoro-1-((1-(4-(1-((S)-1-(4-(2-(methoxymethyl)-1H-benzo[d]imidazol-5-yl)-1-methyl-1H-pyrrolo[2,3-b]pyridin-2-yl)ethyl)piperidin-4-yl)benzoyl)piperidin-4-yl)methyl)piperidin-4-yl)-3-fluorophenyl)amino)piperidine-2,6-dione] | 23.5 nM |
| Cn1c(CN2CCC(c3ccc(C(=O)N4CCC(CN5CCN(c6ccc(NC7CCC(=O)NC7=O)cn6)CC5)CC4)cc3)CC2)cc2c(-c3ccc4[nH]ncc4c3)ccnc21 (stereo not shown) [Example 2n1, 3-((6-(4-((1-(4-(1-((4-(1H-indazol-5-yl)-1-methyl-1H-pyrrolo[2,3-b]pyridin-2-yl)methyl)piperidin-4-yl)benzoyl)piperidin-4-yl)methyl)piperazin-1-yl)pyridin-3-yl)amino)piperidine-2,6-dione] | 15.2 nM |
| Cn1c(CN2CCC(c3ccc(C(=O)N4CCC(CN5CCN(c6ccc(NC7CCC(=O)NC7=O)c(F)n6)CC5)CC4)cc3)CC2)cc2c(-c3ccc4[nH]ncc4c3)ccnc21 (stereo not shown) [Example 2n2, 3-((6-(4-((1-(4-(1-((4-(1H-indazol-5-yl)-1-methyl-1H-pyrrolo[2,3-b]pyridin-2-yl)methyl)-piperidin-4-yl)benzoyl)piperidin-4-yl)methyl)piperazin-1-yl)-2-fluoropyridin-3-yl)amino)piperidine-2,6-dione] | 28.6 nM |
| COCc1nc2cc(-c3ccnc4c3cc(CN3CCC(c5ccc(C(=O)N6CCC(CN7CCN(c8ccc(NC9CCC(=O)NC9=O)c(F)n8)CC7)CC6)cc5)CC3)n4C)ccc2[nH]1 (stereo not shown) [Example 2n3, 3-((2-fluoro-6-(4-((1-(4-(1-((4-(2-(methoxymethyl)-1H-benzo[d]imidazol-5-yl)-1-methyl-1H-pyrrolo[2,3-b]pyridin-2-yl)methyl)piperidin-4-yl)benzoyl)piperidin-4-yl)methyl)piperazin-1-yl)pyridin-3-yl)amino)piperidine-2,6-dione] | 19.8 nM |
| COCc1nc2cc(-c3ccnc4c3cc(CN3CCC(c5ccc(C(=O)N6CCC(CN7CCN(c8ncc(NC9CCC(=O)NC9=O)cc8F)CC7)CC6)cc5)CC3)n4C)ccc2[nH]1 (stereo not shown) [Example 2n6, 3-((5-fluoro-6-(4-((1-(4-(1-((4-(2-(methoxymethyl)-1H-benzo[d]imidazol-5-yl)-1-methyl-1H-pyrrolo[2,3-b]pyridin-2-yl)methyl)piperidin-4-yl)benzoyl)piperidin-4-yl)methyl)piperazin-1-yl)pyridin-3-yl)amino)piperidine-2,6-dione] | 11.7 nM |

Same assay, conditions: Emax provided for test compounds with <80% Emax (and 2c15), geometric mean, read-out: STAT6 degradation Emax

| SMILES | Emax |
| --- | --- |
| C[C@@H](c1cc2c(-c3ccc(N)nc3)ccnc2n1C)N1CCC(c2ccc(C(=O)N3CCC(CN4CCN(c5ccc(NC6CCC(=O)NC6=O)cc5Cl)CC4)CC3)cc2)CC1 (stereo partly drawn) [Example 2i6, 3-((4-(4-((1-(4-(1-((S)-1-(4-(6-aminopyridin-3-yl)-1-methyl-1H-pyrrolo[2,3-b]pyridin-2-yl)-ethyl)piperidin-4-yl)benzoyl)piperidin-4-yl)methyl)piperazin-1-yl)-3-chlorophenyl)amino)piperidine-2,6-dione] | 70 to 80% |
| C[C@@H](c1cc2c(-c3ccc(N)nc3)ccnc2n1C)N1CCC(c2ccc(C(=O)N3CCC(CN4CCN(c5ccc(NC6CCC(=O)NC6=O)cc5C(F)(F)F)CC4)CC3)cc2)CC1 (stereo partly drawn) [Example 2i7, 3-((4-(4-((1-(4-(1-((S)-1-(4-(6-aminopyridin-3-yl)-1-methyl-1H-pyrrolo[2,3-b]pyridin-2-yl)-ethyl)-piperidin-4-yl)benzoyl)piperidin-4-yl)methyl)piperazin-1-yl)-3-(trifluoromethyl)phenyl)amino)-piperidine-2,6-dione] | 40 to 50% |
| CN(C(=O)c1ccc(C2CCN(Cc3cc4c(-c5ccc6[nH]ncc6c5)ccnc4n3C)CC2)cc1)c1ccc(C2CCN(c3ccc(NC4CCC(=O)NC4=O)cc3F)CC2)cc1 (stereo not shown) [Example 2j1, 4-(1-((4-(1H-indazol-5-yl)-1-methyl-1H-pyrrolo[2,3-b]pyridin-2-yl)methyl)piperidin-4-yl)-N-(4-(1-(4-((2,6-dioxopiperidin-3-yl)amino)-2-fluorophenyl)piperidin-4-yl)phenyl)-N-methylbenzamide] | 70 to 80% |
| CN(C(=O)c1ccc(C2CCN(Cc3cc4c(-c5ccc6[nH]ncc6c5)ccnc4n3C)CC2)cc1)c1ccc(C2CCN(c3ccc(NC4CCC(=O)NC4=O)cc3)CC2)cc1 (stereo not shown) [Example 2j2, 4-(1-((4-(1H-indazol-5-yl)-1-methyl-1H-pyrrolo[2,3-b]pyridin-2-yl)methyl)piperidin-4-yl)-N-(4-(1-(4-((2,6-dioxopiperidin-3-yl)amino)phenyl)piperidin-4-yl)phenyl)-N-methylbenzamide] | 40 to 50% |
| Cn1c(CN2CCC(c3ccc(C(=O)N4CCC(CN5CCN(c6nccc(NC7CCC(=O)NC7=O)n6)CC5)CC4)cc3)CC2)cc2c(-c3ccc4[nH]ncc4c3)ccnc21 (stereo not shown) [Example 2k2, 3-((2-(4-((1-(4-(1-((4-(1H-indazol-5-yl)-1-methyl-1H-pyrrolo[2,3-b]pyridin-2-yl)methyl)-piperidin-4-yl)benzoyl)piperidin-4-yl)methyl)piperazin-1-yl)pyrimidin-4-yl)amino)piperidine-2,6-dione] | 30 to 40% |
| Cn1c(CN2CCC(c3ccc(C(=O)N4CCC(CN5CCN(c6ccnc(NC7CCC(=O)NC7=O)n6)CC5)CC4)cc3)CC2)cc2c(-c3ccc4[nH]ncc4c3)ccnc21 (stereo not shown) [Example 2k3, 3-((4-(4-((1-(4-(1-((4-(1H-indazol-5-yl)-1-methyl-1H-pyrrolo[2,3-b]pyridin-2-yl)methyl)-piperidin-4-yl)benzoyl)piperidin-4-yl)methyl)piperazin-1-yl)pyrimidin-2-yl)amino)piperidine-2,6-dione] | 30 to 40% |
| Cn1c(CN2CCC(c3ccc(C(=O)N4CCC(CN5CCN(c6cccc(NC7CCC(=O)NC7=O)c6)CC5)CC4)cc3)CC2)cc2c(-c3ccc4[nH]ncc4c3)ccnc21 (stereo not shown) [Example 2l1, 3-((3-(4-((1-(4-(1-((4-(1H-indazol-5-yl)-1-methyl-1H-pyrrolo[2,3-b]pyridin-2-yl)methyl)-piperidin-4-yl)benzoyl)piperidin-4-yl)methyl)piperazin-1-yl)phenyl)amino)piperidine-2,6-dione] | 60 to 70% |
| Cn1c(CN2CCC(c3ccc(C(=O)N4CCC(CN5CCN(c6ccc(NC7CCC(=O)NC7=O)c(F)n6)CC5)CC4)cc3)CC2)cc2c(-c3ccc(N)nc3)ccnc21 (stereo not shown) [Example 2n4, 3-((6-(4-((1-(4-(1-((4-(6-aminopyridin-3-yl)-1-methyl-1H-pyrrolo[2,3-b]pyridin-2-yl)methyl)-piperidin-4-yl)benzoyl)piperidin-4-yl)methyl)piperazin-1-yl)-2-fluoropyridin-3-yl)amino)piperidine-2,6-dione] | 70 to 80% |
| Cn1c(CN2CCC(c3ccc(C(=O)N4CCC(CN5CCN(c6ncc(NC7CCC(=O)NC7=O)cc6F)CC5)CC4)cc3)CC2)cc2c(-c3ccc(N)nc3)ccnc21 (stereo not shown) [Example 2n5, 3-((6-(4-((1-(4-(1-((4-(6-aminopyridin-3-yl)-1-methyl-1H-pyrrolo[2,3-b]pyridin-2-yl)methyl)-piperidin-4-yl)benzoyl)piperidin-4-yl)methyl)piperazin-1-yl)-5-fluoropyridin-3-yl)amino)piperidine-2,6-dione] | 60 to 70% |
